In one series the test system is BV2 microglia. The experiment in a line: Cytotoxicity on BV2 microglia by CCK-8 assay. The conditions noted are these: read-out: Cytotoxic activities on BV2 cells, IC50; BV2 cells, 24 h, CCK-8, OD 450 nm, repeated three times. Background: Formazan colour is commonly taken as a measure of viable cells.
In series [1] the test system is NO production in LPS-induced BV2 microglia. The series can be described thus: NO production inhibition in LPS-induced BV2 microglia (Griess reaction). In kind it is cell-based. As to conditions: for IC50: read-out: Inhibitory effects on NO in LPS-induced BV-2 cells, IC50; for Inhibitory effect on neuroinflammation (in words): LPS-induced BV2 microglia neuroinflammation model. As for the experimental part: The BV2 microglia cells were plated into a 96-well plate. After adding LPS (1 μg/ml) to each well for 12 h, it was treated with or without compounds of various concentrations (0, 100, 200, 300, 400, and 600 μM) for 12 h. The NO production in the supernatant was measured by the Griess reaction. The absorbance at 570 nm was measured using a microplate reader. The NO concentration and the inhibitory rate were calculated through a calibration curve. Quercetin was used as the positive control. Experiments were repeated three times.
Background: Nitrite, measured by Griess reagent, commonly stands in for NO production.

Series [2] can be described thus: Cytotoxicity on BV2 microglia by CCK-8 assay. The conditions noted are these: mouse, BV2 microglia cells.
Method: A drug-containing medium (0, 50, 100, 200, 400, and 600 μM) was added to each well of the administration group, and an equal volume of medium was also added to the blank group, and they were incubate at 37°C and 5% CO2 for 24 h. After the culture, 10 μl of CCK-8 was added to each well and incubated for 1–4 h at 37°C and 5% CO2. The absorbance (OD) value of each well at 450 nm was detected with a microplate reader, repeating three times, and its IC50 value was calculated.
Where [3] appears, read: LPS 1 μg/ml, Griess reaction, n = 3, x ± s, IC50 > 100 μM deemed inactive.

Like-named read-outs stand apart in the source and are kept apart here.

By IC50 is commonly meant the concentration that gives 50% inhibition.

In the case of “3-O-6′-O-methyl-β-D-glucuronopy-ranoside of gypsogenin [Compound 15]”, the IC50 with BV2 microglia is 157 ± 11 µM; in series [1] (setting [3]), > 100 µM.
In the case of “3-O-α-arabinopyranosyl-(1→2)-β-glucopyranoside-30-norolean-12,20(29)-dien-28-oic acid [Compound 28]”, the results for the IC50 (in the series on BV2 microglia; in series [1] (setting [3])) were 565 ± 48 µM and > 100 µM, respectively.
On the same counts, the results for “3-O-α-rhamnopyranose- (1→2)-α-arabinopyranosyl-29-hydroxy-olean-12-en-28-oic acid [Compound 17]” are 235 ± 21.1 µM and > 100 µM.
As to “3-O-β-D-(6′-O-methyl-glucuronopyranosyl) oleanolic acid [Compound 16]”, in the series with BV2 microglia, the IC50 was found to be 102 ± 9.77 µM. In series [1], the “Inhibitory effect on neuroinflammation (in words)” value (“Inhibitory effect” for short) is reported as “moderate inhibitory effects on neuroinflammation”.
Turning to “3-O-β-D-glucuronopyranosyl-3β,16α-dihydroxyolean-12-en-28-oic acid [Compound 10]”, the IC50 in the series with BV2 microglia is 215 ± 20.2 µM. The “Inhibitory effect” value in series [1] is on record as “moderate inhibitory effects on neuroinflammation”.
“3-[(O-β-D-glucopyranosyl-(1→3)-α-L-arabinopyranosyl)oxy]-30- noroleana-12,20(29)-dien-28-oic acid [Compound 29]”: the figures for the IC50 (in the series on BV2 microglia; in series [1] (setting [3])) were 127 ± 10.6 µM and > 100 µM, respectively.
With `CC1(CO)CCC2(C(=O)O)CCC3(C)C(=CCC4C5(C)CCC(OC6OCC(O)C(OC7OC(CO)C(O)C(O)C7O)C6O)C(C)(C)C5CCC43C)C2C1` (stereo not drawn) [Compound 1, 3-O-β-glucopyranosyl-(1→3)-β-arabinopyranosyl-29-hydroxy-olean-12-en-28-oic acid], the IC50 at 24 h in series [2] was determined as 143 ± 10.9 µM. Besides, in series [1] (Mus musculus, BV-2), the IC50 was > 100 µM.
On the same counts, the results for `CCOC(=O)C1OC(OC2CCC3(C)C(CCC4(C)C3CC=C3C5CC(C)(C)CCC5(C(=O)OC5OC(CO)C(O)C(O)C5O)CCC34C)C2(C)CO)C(O)C(O)C1O` [Compound 2, 3-O-β-D-6′-ethyl-glucuronopyranosyl-23-hydroxy-olean-12-en-28-β-D-glucopyranosyl] are 157 ± 12.7 µM and > 100 µM.
On the same counts, the results for `CC1OC(OC2C(OC3CCC4(C)C(CCC5(C)C4CC=C4C6CC(C)(O)CCC6(C(=O)O)CCC45C)C3(C)C)OCC(O)C2O)C(O)C(O)C1O` [Compound 3, 3β-[(α-L-rhamnopyranosyl-(1→2)-α-L-arabinopyranosyl)oxy]-20α,30-dihydroxy-norolean-12-en-28-oic acid] are 150 ± 13.6 µM and > 100 µM.
The corresponding values for `CC1(C(=O)O)CCC2(C(=O)O)CCC3(C)C(=CCC4C5(C)CCC(OC6OCC(O)C(O)C6OC6OC(CO)C(O)C(O)C6O)C(C)(C)C5CCC43C)C2C1` [Compound 4, 3β-[(O-β-D-glucopyranosyl-(1→2)-α-L-arabinopyranosyl)oxy]olean12-ene-28,29-dioic acid] are 246 ± 21.2 µM and > 100 µM.
`COC(=O)C1OC(OC2CCC3(C)C(CCC4(C)C3CCC3C5=CC(C)(C)CCC5(C(=O)O)CCC34C)C2(C)CO)C(O)C(O)C1O` [Compound 5, 3β,23-dihydroxyolean-18-en-28-oic acid 3-O-β-D-glucuronopyranoside-6′-O-methyl ester] returned an IC50 at 24 h in series [2] of 236 ± 20.2 µM. For the same compound, the “Inhibitory effect” value in series [1] is reported as “moderate inhibitory effects on neuroinflammation”. The IC50 in series [1] (Mus musculus, BV-2) is < 100 µM.
Turning to `CC1(C)CC[C@]2(C(=O)O)CC[C@]3(C)C(=CC[C@@H]4[C@@]5(C)CC[C@H](O[C@@H]6OC[C@H](O)[C@H](O)[C@H]6O)[C@@](C)(CO)[C@@H]5CC[C@]43C)[C@@H]2C1` [Compound 7, hederagenin glycosides 3-O-α-L-arabinopyranoside], the figures for the IC50 (in the series with BV2 microglia; in series [1] (setting [3])) were 124 ± 10.6 µM and > 100 µM, respectively.
Consider `CC1(C)CC[C@]2(C(=O)O)CC[C@]3(C)C(=CC[C@@H]4[C@@]5(C)CC[C@H](O[C@@H]6O[C@H](C(=O)O)[C@@H](O)[C@H](O)[C@H]6O)C(C)(C)[C@@H]5CC[C@]43C)[C@@H]2C1` [Compound 8, oleanolic acid 3-O-β-D-glucuronopyranoside], for which the figures for the IC50 (in the series on BV2 microglia; in series [1] (setting [3])) were 107 ± 9.59 µM and > 100 µM, respectively.
On to `CC1(C)CC[C@]2(C(=O)O)CC[C@]3(C)C(=CC[C@@H]4[C@@]5(C)CCC(O[C@@H]6O[C@H](C(=O)O)[C@@H](O)[C@H](O)[C@H]6O)[C@@](C)(C=O)[C@@H]5CC[C@]43C)C2C1` (stereo partly shown) [Compound 11, gypsogenin 3-O-glucuronide], for which the IC50 in the series on BV2 microglia is 402 ± 39.5 µM; in series [1] (setting [3]), > 100 µM.
On the same counts, the results for `C[C@@H]1O[C@@H](O[C@H]2[C@H](O[C@H]3CC[C@]4(C)[C@H]5CC=C6[C@@H]7CC(C)(C)CC[C@]7(C(=O)O)CC[C@@]6(C)[C@]5(C)CC[C@H]4C3(C)C)OC[C@H](O)[C@@H]2O)[C@H](O)[C@H](O)[C@H]1O` [Compound 18, 3-O-[α-L-rhamnopyranosyl-(1→2)-α-L-arabinopyranosyl] oleanolic acid] are 204 ± 19.8 µM and > 100 µM.
On the same counts, the results for `CC1(C)CC[C@]2(C(=O)O[C@@H]3O[C@H](CO)[C@@H](O)[C@H](O)[C@H]3O)CC[C@]3(C)C(=CC[C@@H]4[C@@]5(C)CC[C@H](O[C@@H]6OC[C@H](O)[C@H](O)[C@H]6O)[C@@](C)(CO)[C@@H]5CC[C@]43C)[C@@H]2C1` [Compound 19, HN-saponin F] are 466 ± 35.1 µM and > 100 µM.
On the same counts, the results for `CC1(C)CC[C@]2(C(=O)O)CC[C@]3(C)C(=CC[C@@H]4[C@@]5(C)CC[C@H](O[C@@H]6OC[C@H](O)[C@H](O)[C@H]6O[C@@H]6O[C@H](CO)[C@@H](O)[C@H](O)[C@H]6O)C(C)(C)[C@@H]5CC[C@]43C)[C@@H]2C1` [Compound 20, saponin PE] are 136 ± 10.6 µM and > 100 µM.
Regarding `CC1(C)CCC2(C(=O)O)CCC3(C)C(=CCC4C5(C)CCC(OC6OCC(O)C(OC7OC(CO)C(O)C(O)C7O)C6O)C(C)(C)C5CCC43C)C2C1` [Compound 21, oleanolic acid 3-O-β-D-glucopyranosyl (1→3)-α-L-arabinopyranoside], the half-inhibitory concentration (IC50) in the series on BV2 microglia stood at 306 ± 28 µM.
In the case of `CC1(C)CC[C@]2(C(=O)O)CC[C@]3(C)C(=CC[C@@H]4[C@@]5(C)CC[C@H](O[C@@H]6O[C@H](CO)[C@@H](O)[C@H](O)[C@H]6O[C@@H]6O[C@H](CO)[C@@H](O)[C@H](O)[C@H]6O)C(C)(C)[C@@H]5CC[C@]43C)[C@@H]2C1` [Compound 24, 3-O-β-D-glucopyranosyl-(1→2)-β-D-glucopyranosyl oleanolic acid], the IC50 in the series with BV2 microglia was 189 ± 15.2 µM; in series [1] (setting [3]) it was > 100 µM.
As for `CC1OC(OC2C(OC3CCC4(C)C(CCC5(C)C4CC=C4C6CC(C)(C)CCC6(C(=O)OC6OC(CO)C(O)C(O)C6O)CCC45C)C3(C)C)OCC(O)C2O)C(O)C(O)C1O` [Compound 26, oleanolic acid 3-O-α-L-rhamnopyranosyl(1→2)-α-L-arabinopyranosyl-28-O-β-D-glucopyranosyl ester], the IC50 in the series with BV2 microglia came to 160 ± 13.5 µM.
Consider `O=c1c(O)c(-c2ccc(O)c(O)c2)oc2cc(O)cc(O)c12` [Quercetin, reference compound], for which the IC50 in series [1] (Mus musculus, BV-2) was 10.5 ± 1.07 µM.
Turning to HN-saponin D1 [Compound 6], the results for the IC50 (in the series with BV2 microglia; in series [1] (setting [3])) were 108 ± 8.24 µM and > 100 µM, respectively.
Consider HN-saponin K [Compound 9], for which the IC50 in the series on BV2 microglia was 241 ± 18.6 µM; in series [1] (setting [3]), > 100 µM.
Regarding elatoside G [Compound 12], in the series with BV2 microglia, the IC50 amounted to 264 ± 22.9 µM. Also, in series [1], the “Inhibitory effect” value is “moderate inhibitory effects on neuroinflammation”.
For “hederagenin-3-O-β-D- glucuronopyranoside 6′-O-methyl ester [Compound 13]”, the “Inhibitory effect” value in series [1] is “moderate inhibitory effects on neuroinflammation”.
For the compound lucyoside F [Compound 22], the results for the IC50 (in the series on BV2 microglia; in series [1] (setting [3])) were 146 ± 12.7 µM and > 100 µM, respectively.
On the same counts, the results for lucyoside H [Compound 23] are 131 ± 10 µM and > 100 µM.
In the case of paritriside E [Compound 27], the IC50 was 133 ± 11.8 µM in the series with BV2 microglia and > 100 µM in series [1] (setting [3]).
On the same counts, the results for “tragopogonsaponin A methyl ester [Compound 14]” are 585 ± 45.6 µM and > 100 µM.
